What was measured:
[1] = molecular target: CSK (Homo sapiens, UniProt P41240); test: kinase panel; format: biochemical
[2] = molecular target: Adrenergic Alpha 2C receptor (Homo sapiens, UniProt P18825); test: Adrenergic Alpha 2C receptor assay; format: binding
[3] = molecular target: PHK-GAMMA2 (Homo sapiens, UniProt P15735); test: kinase panel; format: biochemical
[4] = molecular target: TYRO3 (Homo sapiens, UniProt Q06418); test: kinase panel; format: biochemical
[5] = molecular target: CAMK2A (Homo sapiens, UniProt Q9UQM7); test: kinase panel; format: biochemical
[6] = molecular target: PKA (Homo sapiens, UniProt P17612); test: kinase panel; format: biochemical
[7] = molecular target: FLT-3 (Homo sapiens, UniProt P36888); test: kinase panel; format: biochemical
[8] = molecular target: CAMK2B (Homo sapiens, UniProt Q13554); test: kinase panel; format: biochemical
[9] = molecular target: TRKC (Homo sapiens, UniProt Q16288); test: kinase panel; format: biochemical
[10] = molecular target: PKC-ETA (Homo sapiens, UniProt P24723); test: kinase panel; format: biochemical
Chain of PKC-ETA (P24723 whole entry): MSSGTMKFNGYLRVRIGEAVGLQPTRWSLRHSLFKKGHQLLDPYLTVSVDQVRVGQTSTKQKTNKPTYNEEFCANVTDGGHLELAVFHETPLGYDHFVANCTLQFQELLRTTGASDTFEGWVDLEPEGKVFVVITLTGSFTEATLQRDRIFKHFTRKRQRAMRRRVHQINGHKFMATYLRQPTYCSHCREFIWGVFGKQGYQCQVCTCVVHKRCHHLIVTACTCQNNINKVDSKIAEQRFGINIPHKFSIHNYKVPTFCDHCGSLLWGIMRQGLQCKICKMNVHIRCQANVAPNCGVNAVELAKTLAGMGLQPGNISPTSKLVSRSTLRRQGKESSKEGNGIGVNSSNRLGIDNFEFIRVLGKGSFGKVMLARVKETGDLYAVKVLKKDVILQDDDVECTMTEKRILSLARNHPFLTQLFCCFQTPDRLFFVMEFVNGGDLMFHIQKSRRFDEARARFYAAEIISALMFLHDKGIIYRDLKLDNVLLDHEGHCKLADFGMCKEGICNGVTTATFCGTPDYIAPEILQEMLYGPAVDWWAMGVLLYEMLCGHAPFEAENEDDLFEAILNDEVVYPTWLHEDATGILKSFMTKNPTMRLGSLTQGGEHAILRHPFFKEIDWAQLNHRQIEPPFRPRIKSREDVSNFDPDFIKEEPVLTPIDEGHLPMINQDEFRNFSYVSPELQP

[11] = molecular target: TBK1 (Homo sapiens, UniProt Q9UHD2); test: kinase panel; format: biochemical
[12] = molecular target: ZAP70 (Homo sapiens, UniProt P43403); test: kinase panel; format: biochemical
[13] = molecular target: Monoamine Oxidase A (Homo sapiens, UniProt P21397); test: Monoamine Oxidase A assay; format: biochemical
[14] = molecular target: MAPKAPK3 (Homo sapiens, UniProt Q16644); test: kinase panel; format: biochemical
[15] = molecular target: Dopamine Transporter (Homo sapiens, UniProt Q01959); test: Dopamine Transporter assay; format: binding
Chain of Dopamine Transporter (Q01959 whole entry): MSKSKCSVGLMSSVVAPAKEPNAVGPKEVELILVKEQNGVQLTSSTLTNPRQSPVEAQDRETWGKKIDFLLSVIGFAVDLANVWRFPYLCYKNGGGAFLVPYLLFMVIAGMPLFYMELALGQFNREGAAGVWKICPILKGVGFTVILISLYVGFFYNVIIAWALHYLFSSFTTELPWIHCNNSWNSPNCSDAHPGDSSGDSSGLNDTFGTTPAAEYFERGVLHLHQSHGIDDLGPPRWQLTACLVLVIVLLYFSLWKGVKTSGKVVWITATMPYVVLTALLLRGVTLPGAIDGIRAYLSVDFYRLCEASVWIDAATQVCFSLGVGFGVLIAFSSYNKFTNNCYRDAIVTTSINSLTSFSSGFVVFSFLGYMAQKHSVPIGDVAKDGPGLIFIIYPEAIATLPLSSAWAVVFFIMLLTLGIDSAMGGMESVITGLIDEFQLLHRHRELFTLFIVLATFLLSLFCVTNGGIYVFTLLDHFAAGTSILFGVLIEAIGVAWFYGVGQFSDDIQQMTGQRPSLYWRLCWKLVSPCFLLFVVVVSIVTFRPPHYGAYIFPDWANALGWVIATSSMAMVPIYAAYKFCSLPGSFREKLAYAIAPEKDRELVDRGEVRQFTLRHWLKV

[16] = molecular target: PKN2 (Homo sapiens, UniProt Q16513); test: kinase panel; format: biochemical
Chain of PKN2 (Q16513 whole entry): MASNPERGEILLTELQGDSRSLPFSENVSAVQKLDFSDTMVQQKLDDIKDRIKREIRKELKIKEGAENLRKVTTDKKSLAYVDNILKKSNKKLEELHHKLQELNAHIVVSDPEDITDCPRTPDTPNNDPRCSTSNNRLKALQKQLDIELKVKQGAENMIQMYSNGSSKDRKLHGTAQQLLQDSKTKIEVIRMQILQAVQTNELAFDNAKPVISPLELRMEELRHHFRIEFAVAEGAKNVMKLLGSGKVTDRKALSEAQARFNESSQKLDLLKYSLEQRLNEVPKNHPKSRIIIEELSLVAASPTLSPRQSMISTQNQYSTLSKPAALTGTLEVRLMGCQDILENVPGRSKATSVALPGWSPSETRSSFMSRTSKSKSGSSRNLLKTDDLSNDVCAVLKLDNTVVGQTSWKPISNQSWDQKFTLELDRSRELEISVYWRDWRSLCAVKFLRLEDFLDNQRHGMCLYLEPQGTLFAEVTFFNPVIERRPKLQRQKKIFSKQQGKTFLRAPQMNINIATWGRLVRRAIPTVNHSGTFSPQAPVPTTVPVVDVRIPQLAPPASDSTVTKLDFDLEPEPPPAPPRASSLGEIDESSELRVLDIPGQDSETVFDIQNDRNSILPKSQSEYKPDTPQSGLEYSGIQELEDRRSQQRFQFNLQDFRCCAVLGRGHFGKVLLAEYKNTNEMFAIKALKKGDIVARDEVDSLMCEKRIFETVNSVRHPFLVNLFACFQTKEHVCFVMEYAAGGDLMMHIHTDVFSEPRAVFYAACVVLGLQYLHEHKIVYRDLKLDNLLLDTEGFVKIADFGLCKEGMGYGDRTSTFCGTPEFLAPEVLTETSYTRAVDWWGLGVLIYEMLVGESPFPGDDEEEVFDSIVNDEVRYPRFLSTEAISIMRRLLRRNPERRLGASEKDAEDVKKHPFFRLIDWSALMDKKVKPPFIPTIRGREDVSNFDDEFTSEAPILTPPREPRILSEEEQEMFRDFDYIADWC

[17] = molecular target: FRAP1 (Homo sapiens, UniProt P42345); test: kinase panel; format: biochemical
[18] = molecular target: MRCK-ALPHA (Homo sapiens, UniProt Q5VT25); test: kinase panel; format: biochemical
[19] = molecular target: YES (Homo sapiens, UniProt P07947); test: kinase panel; format: biochemical
[20] = molecular target: RON (Homo sapiens, UniProt Q04912); test: kinase panel; format: biochemical
[21] = molecular target: PI3K-GAMMA (Homo sapiens, UniProt P48736); test: kinase panel; format: biochemical
[22] = molecular target: CAMK1A (Homo sapiens, UniProt Q14012); test: kinase panel; format: biochemical
[23] = molecular target: H1 receptor (Homo sapiens, UniProt P35367); test: H1 receptor calcium assay; format: cell-based
[24] = molecular target: MAP4K4 (Homo sapiens, UniProt O95819); test: kinase panel; format: biochemical
[25] = molecular target: CDK3-CYCLINE (Homo sapiens, UniProt Q00526); test: kinase panel; format: biochemical
[26] = molecular target: TXK (Homo sapiens, UniProt P42681); test: kinase panel; format: biochemical
[27] = molecular target: FLT-4 (Homo sapiens, UniProt P35916); test: kinase panel; format: biochemical
Chain of FLT-4 (P35916 25-1363): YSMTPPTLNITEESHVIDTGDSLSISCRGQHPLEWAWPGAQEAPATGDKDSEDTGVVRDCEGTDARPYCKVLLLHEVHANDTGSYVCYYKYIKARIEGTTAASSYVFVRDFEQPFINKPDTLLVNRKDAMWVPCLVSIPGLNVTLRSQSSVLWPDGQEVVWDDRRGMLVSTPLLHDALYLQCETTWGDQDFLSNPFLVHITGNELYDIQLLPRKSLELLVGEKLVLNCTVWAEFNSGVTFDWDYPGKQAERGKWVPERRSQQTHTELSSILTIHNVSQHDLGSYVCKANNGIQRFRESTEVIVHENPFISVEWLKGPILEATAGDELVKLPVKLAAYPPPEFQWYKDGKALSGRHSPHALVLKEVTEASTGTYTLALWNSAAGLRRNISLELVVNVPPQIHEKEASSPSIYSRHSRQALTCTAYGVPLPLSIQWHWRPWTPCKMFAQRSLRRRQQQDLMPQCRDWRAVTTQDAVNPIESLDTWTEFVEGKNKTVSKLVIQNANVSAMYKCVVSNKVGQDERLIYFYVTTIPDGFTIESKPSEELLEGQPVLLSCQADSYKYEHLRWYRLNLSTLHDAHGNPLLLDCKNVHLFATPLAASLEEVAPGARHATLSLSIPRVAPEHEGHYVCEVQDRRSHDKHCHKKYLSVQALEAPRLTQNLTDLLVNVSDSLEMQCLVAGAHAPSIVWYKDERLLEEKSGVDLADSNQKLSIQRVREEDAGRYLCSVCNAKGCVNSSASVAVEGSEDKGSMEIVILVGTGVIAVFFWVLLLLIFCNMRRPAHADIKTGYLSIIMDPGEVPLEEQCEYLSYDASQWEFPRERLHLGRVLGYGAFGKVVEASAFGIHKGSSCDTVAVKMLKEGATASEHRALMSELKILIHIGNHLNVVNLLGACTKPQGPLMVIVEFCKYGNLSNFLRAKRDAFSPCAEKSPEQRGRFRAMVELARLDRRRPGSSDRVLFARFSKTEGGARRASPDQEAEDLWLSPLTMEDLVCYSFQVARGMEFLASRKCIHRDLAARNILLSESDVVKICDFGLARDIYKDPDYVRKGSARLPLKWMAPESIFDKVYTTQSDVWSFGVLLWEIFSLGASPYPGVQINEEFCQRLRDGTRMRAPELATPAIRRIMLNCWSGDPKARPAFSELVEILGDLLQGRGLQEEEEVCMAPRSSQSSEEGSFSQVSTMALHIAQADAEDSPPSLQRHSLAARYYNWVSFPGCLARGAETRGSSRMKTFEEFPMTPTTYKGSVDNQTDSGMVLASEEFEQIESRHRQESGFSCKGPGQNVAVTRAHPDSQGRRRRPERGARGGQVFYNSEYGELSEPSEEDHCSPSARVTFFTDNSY

[28] = molecular target: ABL1 (Homo sapiens, UniProt P00519); test: kinase panel; format: biochemical
[29] = molecular target: PDGFR-ALPHA (Homo sapiens, UniProt P16234); test: kinase panel; format: biochemical
[30] = molecular target: RET (Homo sapiens, UniProt P07949); test: kinase panel; format: biochemical
[31] = molecular target: TSSK1 (Homo sapiens, UniProt Q9BXA7); test: kinase panel; format: biochemical
[32] = molecular target: LRRK2-G2019S (Homo sapiens, UniProt Q5S007, G2019S); test: kinase panel; format: biochemical
[33] = molecular target: CHEK1 (Homo sapiens, UniProt O14757); test: kinase panel; format: biochemical
Chain of CHEK1 (O14757 whole entry): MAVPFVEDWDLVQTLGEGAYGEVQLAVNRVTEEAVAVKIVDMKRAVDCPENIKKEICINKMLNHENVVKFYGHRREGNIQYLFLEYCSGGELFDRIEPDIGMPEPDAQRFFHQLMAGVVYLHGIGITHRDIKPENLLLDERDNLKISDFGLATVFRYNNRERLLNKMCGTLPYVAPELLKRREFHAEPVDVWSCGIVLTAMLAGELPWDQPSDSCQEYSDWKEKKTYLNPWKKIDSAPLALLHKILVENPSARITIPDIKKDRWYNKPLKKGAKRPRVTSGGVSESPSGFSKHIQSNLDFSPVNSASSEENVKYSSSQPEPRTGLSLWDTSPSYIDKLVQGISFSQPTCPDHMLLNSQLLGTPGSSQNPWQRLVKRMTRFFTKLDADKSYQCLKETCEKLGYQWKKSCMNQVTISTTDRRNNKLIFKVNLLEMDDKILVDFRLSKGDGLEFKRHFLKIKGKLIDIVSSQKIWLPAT

[34] = molecular target: MEK1 (Homo sapiens, UniProt Q02750); test: kinase panel; format: biochemical
[35] = molecular target: ROCK1 (Homo sapiens, UniProt Q13464); test: kinase panel; format: biochemical
[36] = molecular target: ARG (Homo sapiens, UniProt P42684); test: kinase panel; format: biochemical
[37] = molecular target: PAK2 (Homo sapiens, UniProt Q13177); test: kinase panel; format: biochemical
[38] = molecular target: EPH-A3 (Homo sapiens, UniProt P29320); test: kinase panel; format: biochemical
Chain of EPH-A3 (P29320 21-983): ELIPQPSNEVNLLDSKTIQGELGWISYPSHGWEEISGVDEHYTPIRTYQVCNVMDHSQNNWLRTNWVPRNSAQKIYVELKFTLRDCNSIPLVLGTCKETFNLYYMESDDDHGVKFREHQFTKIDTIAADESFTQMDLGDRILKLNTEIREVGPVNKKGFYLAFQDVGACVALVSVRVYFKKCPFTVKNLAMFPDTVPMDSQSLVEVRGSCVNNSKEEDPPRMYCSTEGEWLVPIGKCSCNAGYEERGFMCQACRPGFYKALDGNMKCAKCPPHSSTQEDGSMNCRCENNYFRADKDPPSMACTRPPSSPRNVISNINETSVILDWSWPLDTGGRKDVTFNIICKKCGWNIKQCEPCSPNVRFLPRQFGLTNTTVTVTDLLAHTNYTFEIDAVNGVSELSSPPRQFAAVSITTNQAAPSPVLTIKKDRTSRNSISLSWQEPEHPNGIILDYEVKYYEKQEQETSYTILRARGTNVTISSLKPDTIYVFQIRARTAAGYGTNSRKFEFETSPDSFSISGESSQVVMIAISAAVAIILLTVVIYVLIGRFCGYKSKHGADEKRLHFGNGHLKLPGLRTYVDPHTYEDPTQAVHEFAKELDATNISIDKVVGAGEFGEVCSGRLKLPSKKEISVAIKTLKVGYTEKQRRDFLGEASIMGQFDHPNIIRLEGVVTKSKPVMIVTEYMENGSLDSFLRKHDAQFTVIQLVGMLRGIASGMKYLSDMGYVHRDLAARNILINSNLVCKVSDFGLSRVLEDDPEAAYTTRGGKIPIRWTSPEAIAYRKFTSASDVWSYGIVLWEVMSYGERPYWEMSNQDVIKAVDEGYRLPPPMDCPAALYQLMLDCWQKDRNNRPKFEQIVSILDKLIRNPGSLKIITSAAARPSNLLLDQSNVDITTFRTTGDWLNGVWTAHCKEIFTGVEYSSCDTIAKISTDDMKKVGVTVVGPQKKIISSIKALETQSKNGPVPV

[39] = molecular target: Norepinephrine Transporter (Homo sapiens, UniProt P23975); test: Norepinephrine Transporter assay; format: binding
[40] = molecular target: CDK5-P25 (Homo sapiens, UniProt Q00535); test: kinase panel; format: biochemical
[41] = molecular target: Melanocortin MC3 receptor (Homo sapiens, UniProt P41968); test: Melanocortin MC3 receptor binding assay
[42] = molecular target: FGFR3 (Homo sapiens, UniProt P22607); test: kinase panel; format: biochemical
[43] = molecular target: KIT (Homo sapiens, UniProt P10721); test: kinase panel; format: biochemical
[44] = molecular target: FGFR4 (Homo sapiens, UniProt P22455); test: kinase panel; format: biochemical

O=C(Nc1nccs1)C(c1cc(F)ccc1O)N1Cc2ccccc2C1=O (centres unmarked) [EAI045, 2-(5-fluoro-2-hydroxyphenyl)-2-(1-oxo-2,3-dihydro-1H-isoindol-2-yl)-N-(1,3-thiazol-2-yl)acetamide]
3%: inhibition at 1 µM [6] | inhibition at 1 µM [11]
0%: inhibition at 1 µM [1] | inhibition at 1 µM [3] | inhibition at 1 µM [4] | inhibition at 1 µM [7] | inhibition at 1 µM [8] | inhibition at 1 µM [10] | inhibition at 1 µM [14] | inhibition at 1 µM [17] | inhibition at 1 µM [18] | inhibition at 1 µM [19] | inhibition at 1 µM [20] | inhibition at 1 µM [21] | inhibition at 1 µM [22] | inhibition at 1 µM [25] | inhibition at 1 µM [26] | inhibition at 1 µM [29] | inhibition at 1 µM [30] | inhibition at 1 µM [32] | inhibition at 1 µM [33] | inhibition at 1 µM [34] | inhibition at 1 µM [35] | inhibition at 1 µM [37] | inhibition at 1 µM [40] | inhibition at 1 µM [43] | inhibition at 1 µM [44]
> 30 µM: IC50 [2] | IC50 [13] | IC50 [15] | IC50 [23] | IC50 [39] | IC50 [41]
2%: inhibition at 1 µM [5] | inhibition at 1 µM [24] | inhibition at 1 µM [31] | inhibition at 1 µM [36]
1%: inhibition at 1 µM [12] | inhibition at 1 µM [16] | inhibition at 1 µM [27] | inhibition at 1 µM [28] | inhibition at 1 µM [38] | inhibition at 1 µM [42]
4%: inhibition at 1 µM [9]

Reference: publication PMC4929832 (Nature, 2016)
